Nine molecules from ChEMBL document CHEMBL1124016, “Antihypertensive activity in a series of 1-piperazino-3-phenylindans with potent 5-HT2-antagonistic activity” (J Med Chem, 1988) can be followed below.

Structures are written as SMILES. pIC50: −log10 of the molar value.

In test [1] the test system is Rattus norvegicus. Put plainly: Inhibition of phenylephrine induced pressor response in pithed rats (following i.v. administration of […]). The conditions noted are these: route intravenous. Type of test: functional.
For test [2], the target named is Sodium-dependent serotonin transporter (Rattus norvegicus, UniProt P31652). Nature of the test: In vitro inhibition of [3H]5-HT transporter uptake in rat brain synaptosomes. Type of test: subcellular.
Sequence of Sodium-dependent serotonin transporter (P31652 whole entry): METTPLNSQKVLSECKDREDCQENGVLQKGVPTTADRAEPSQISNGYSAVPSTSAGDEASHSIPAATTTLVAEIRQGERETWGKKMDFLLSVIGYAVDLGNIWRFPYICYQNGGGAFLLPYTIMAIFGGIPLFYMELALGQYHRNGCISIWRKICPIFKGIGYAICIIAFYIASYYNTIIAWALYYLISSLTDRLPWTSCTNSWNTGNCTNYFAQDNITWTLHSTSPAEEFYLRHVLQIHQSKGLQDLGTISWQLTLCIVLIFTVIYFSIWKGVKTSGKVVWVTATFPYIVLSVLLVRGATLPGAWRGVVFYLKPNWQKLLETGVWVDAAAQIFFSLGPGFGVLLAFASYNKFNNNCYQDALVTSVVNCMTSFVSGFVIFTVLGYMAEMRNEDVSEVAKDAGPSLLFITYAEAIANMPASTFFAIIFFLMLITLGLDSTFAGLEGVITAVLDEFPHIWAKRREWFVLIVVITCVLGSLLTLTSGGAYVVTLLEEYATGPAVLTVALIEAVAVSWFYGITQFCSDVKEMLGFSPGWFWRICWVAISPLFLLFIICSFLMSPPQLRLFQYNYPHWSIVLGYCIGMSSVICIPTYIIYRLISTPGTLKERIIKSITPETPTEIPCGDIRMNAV
The test system of test [3] is Rattus norvegicus. Nature of the test: Percent reduction of blood pressure in spontaneously hypertensive rat after 10 min at intraperitoneal administration of 5 mg/kg. Type of test: functional.
The target in test [4] is Serotonin 2 (5-HT2) receptor (Rattus norvegicus, UniProt P30994+P08909+P14842). Nature of the test: Inhibition of [3H]spiperone binding to 5-hydroxytryptamine 2 receptor from rat cortical membranes. Type of test: cell membranes, Membrane.
In test [5] the target is T1, Adrenergic receptor alpha-1 (Rattus norvegicus, UniProt P15823+P23944+P43140).
T1 sequence (P15823 whole entry): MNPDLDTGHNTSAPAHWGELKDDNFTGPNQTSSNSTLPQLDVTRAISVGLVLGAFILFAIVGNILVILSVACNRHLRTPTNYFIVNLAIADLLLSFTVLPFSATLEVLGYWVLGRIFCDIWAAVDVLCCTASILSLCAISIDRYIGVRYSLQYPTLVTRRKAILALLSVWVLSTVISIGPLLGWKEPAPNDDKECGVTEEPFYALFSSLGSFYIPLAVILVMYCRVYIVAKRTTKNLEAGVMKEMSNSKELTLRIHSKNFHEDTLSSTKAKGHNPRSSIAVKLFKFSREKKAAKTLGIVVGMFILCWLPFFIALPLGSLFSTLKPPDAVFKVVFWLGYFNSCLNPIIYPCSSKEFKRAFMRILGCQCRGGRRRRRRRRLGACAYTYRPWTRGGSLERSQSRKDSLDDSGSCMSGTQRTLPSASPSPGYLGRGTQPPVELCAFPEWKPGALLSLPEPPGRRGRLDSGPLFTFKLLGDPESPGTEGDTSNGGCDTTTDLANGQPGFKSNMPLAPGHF
T1 sequence (P23944 whole entry): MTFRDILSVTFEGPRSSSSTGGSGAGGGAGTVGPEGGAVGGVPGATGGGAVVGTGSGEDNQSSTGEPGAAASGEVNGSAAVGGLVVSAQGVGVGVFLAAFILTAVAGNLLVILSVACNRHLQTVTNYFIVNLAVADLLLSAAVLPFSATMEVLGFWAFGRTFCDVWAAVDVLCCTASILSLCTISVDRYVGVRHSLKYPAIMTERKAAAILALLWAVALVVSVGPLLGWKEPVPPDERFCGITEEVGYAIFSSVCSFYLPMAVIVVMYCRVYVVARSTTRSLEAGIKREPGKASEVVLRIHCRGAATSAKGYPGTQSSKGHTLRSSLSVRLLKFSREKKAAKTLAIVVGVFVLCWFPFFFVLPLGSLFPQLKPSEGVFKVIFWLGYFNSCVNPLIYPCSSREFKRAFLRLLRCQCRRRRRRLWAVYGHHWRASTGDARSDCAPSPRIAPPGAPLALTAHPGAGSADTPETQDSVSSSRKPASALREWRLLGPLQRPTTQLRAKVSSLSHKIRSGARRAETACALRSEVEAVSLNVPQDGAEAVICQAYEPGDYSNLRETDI
T1 sequence (P43140 whole entry): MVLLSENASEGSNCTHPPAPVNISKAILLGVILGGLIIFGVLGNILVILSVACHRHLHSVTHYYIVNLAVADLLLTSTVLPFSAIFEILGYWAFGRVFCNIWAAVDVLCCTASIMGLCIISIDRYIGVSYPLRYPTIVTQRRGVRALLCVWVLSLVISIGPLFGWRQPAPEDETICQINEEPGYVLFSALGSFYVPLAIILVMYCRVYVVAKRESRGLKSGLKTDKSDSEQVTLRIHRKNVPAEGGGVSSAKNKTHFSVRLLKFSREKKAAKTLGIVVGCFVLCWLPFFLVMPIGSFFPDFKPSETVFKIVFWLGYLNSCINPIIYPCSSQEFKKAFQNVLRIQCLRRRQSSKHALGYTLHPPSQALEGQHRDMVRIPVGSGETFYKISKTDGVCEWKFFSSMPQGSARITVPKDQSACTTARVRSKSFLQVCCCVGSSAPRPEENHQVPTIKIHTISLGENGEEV
Put plainly: Inhibition of [3H]prazosin binding to alpha-1 adrenergic receptor from rat cortical membranes. Type of test: cell membranes, Membrane.

The subject of test [6] is Rattus norvegicus. Put plainly: Inhibition of 5-HT induced pressor response in pithed rats, after intravenous administration of 0.02 mg/kg. Type of test: functional.
For test [7], the target named is Norepinephrine transporter (Rattus norvegicus, UniProt Q9WTR4). Nature of the test: In vitro inhibition of [3H]norepinephrine uptake in rat brain synaptosomes. Type of test: subcellular.
Sequence of Norepinephrine transporter (Q9WTR4 whole entry): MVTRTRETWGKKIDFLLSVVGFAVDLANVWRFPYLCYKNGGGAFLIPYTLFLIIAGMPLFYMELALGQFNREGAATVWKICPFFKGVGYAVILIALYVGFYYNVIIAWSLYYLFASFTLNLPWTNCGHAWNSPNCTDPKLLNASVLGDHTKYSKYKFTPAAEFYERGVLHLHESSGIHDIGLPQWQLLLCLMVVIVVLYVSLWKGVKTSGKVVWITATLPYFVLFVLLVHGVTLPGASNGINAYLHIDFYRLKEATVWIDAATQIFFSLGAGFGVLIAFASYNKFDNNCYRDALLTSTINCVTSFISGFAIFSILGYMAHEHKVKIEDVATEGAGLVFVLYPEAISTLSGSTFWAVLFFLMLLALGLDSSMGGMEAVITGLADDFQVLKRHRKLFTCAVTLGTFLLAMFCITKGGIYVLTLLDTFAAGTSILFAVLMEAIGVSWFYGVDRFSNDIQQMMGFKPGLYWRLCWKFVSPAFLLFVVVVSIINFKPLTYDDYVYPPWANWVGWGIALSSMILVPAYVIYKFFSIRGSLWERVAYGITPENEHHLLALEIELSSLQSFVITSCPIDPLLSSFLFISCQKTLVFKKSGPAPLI
Test [8] addresses Sodium-dependent dopamine transporter (Rattus norvegicus, UniProt P23977). Nature of the test: In vitro inhibition of [3H]dopamine uptake in rat brain synaptosomes. Type of test: subcellular.
The species named for test [9] is Mus musculus. Put plainly: Inhibition of methyl phenidate induced stereotyped gnawing in mice. Type of test: functional.
The species entered for test [10] is Rattus norvegicus. Put plainly: Inhibition of L-5-HTP (L-5-hydroxytryptophan) induced head twitches in rat. Type of test: functional.
Test [11] relates to Rattus norvegicus. Put plainly: Inhibition of 5-HT induced pressor response in pithed rats, after intravenous administration. Type of test: functional.
For test [12], the target named is D(2) dopamine receptor (Rattus norvegicus, UniProt P61169). Nature of the test: Inhibition of [3H]spiperone binding to Dopamine receptor D2 from rat striatal membranes. Type of test: cell membranes, Membrane.
Sequence of D(2) dopamine receptor (P61169 whole entry): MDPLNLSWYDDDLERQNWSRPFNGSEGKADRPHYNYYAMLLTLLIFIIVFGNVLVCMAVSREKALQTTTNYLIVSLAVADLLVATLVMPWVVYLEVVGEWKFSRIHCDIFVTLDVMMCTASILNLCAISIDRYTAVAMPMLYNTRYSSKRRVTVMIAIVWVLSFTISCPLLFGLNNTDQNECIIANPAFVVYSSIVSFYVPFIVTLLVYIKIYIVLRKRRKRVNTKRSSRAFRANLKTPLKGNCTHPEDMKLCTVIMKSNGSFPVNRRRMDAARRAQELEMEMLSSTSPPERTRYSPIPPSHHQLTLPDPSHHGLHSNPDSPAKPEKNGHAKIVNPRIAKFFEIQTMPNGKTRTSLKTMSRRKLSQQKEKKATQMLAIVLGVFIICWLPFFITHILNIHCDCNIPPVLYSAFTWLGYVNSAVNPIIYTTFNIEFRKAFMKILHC
Test [13] relates to Rattus norvegicus. Put plainly: Percent reduction of systolic arterial blood pressure(SAP) in spontaneously hypertensive rat after 10 min at intraperitoneal administration of 5 mg/kg. Type of test: functional.
Test [14] deals with Rattus norvegicus. Put plainly: Percent reduction of diastolic arterial blood pressure(DAP) in spontaneously hypertensive rat after 10 min at intraperitoneal administration of 5 mg/kg. Type of test: functional.
For test [15], the species on record is Rattus norvegicus. Put plainly: Ratio of phenylephrine ED50/ 5-HT ED50. Type of test: functional.
The test system of test [16] is Rattus norvegicus. Put plainly: Inhibition of 5-HT induced pressor response in pithed rats, after intravenous administration, activity is expressed as ED50. Type of test: functional.
Setting [17] is: Rattus norvegicus, read-out: ED50.

Sequence of Sodium-dependent dopamine transporter (P23977 whole entry): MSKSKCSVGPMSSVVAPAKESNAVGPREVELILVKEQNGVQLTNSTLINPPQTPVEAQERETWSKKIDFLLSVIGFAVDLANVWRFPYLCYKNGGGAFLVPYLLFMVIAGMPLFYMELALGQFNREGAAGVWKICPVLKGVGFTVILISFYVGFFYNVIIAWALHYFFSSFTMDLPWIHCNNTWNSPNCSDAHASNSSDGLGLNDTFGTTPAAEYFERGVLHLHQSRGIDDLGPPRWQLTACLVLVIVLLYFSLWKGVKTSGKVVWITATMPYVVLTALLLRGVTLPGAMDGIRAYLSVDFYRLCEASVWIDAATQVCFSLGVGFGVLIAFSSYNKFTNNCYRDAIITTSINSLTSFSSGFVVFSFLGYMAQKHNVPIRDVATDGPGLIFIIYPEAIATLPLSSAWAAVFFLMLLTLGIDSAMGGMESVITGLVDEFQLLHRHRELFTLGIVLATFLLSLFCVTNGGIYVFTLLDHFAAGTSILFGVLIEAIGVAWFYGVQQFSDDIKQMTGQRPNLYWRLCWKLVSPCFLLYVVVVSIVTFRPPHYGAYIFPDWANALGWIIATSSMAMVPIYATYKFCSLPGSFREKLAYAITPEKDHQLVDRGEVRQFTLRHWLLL

For `CN1CCN([C@H]2C[C@H](c3ccc(F)cc3)c3ccc(F)cc32)CC1`, the Change in test [1] was 5%; in [6] it was -43%. The pIC50 in [2] is 6.21; in test [7], 7.55; in [8] it was 7.09. In addition, the Reduction in [3] was -5%. Further, the IC50 in test [4] stood at 43 nM; in test [5], 85 nM. The figures for the ED50 in [9] and in test [10] (setting [17]) were 42 µmol/kg and 0.49 µmol/kg, respectively.
On to `O.O=C1NCCN1CCN1CCN([C@H]2C[C@H](c3ccc(F)cc3)c3ccccc32)CC1`, for which the Change is on record as 53% in [1] and -11% in test [6]. In addition, the ED50 in [11] was 2.7 µmol/kg; in test [9] it was greater than 97 µmol/kg; in [10] (setting [17]), greater than 97 µmol/kg. The pIC50 in [2] was 5.01; in [7], 7.16; in test [8], 6.85; in [12], 4.89. Moreover, in [3], the Reduction was 3%. For the same molecule, the IC50 in [4] was 570 nM; in [5], 540 nM.
For `Fc1ccc([C@H]2C[C@H](N3CCNCC3)c3ccccc32)cc1.O=C(O)/C=C\C(=O)O.O=C(O)/C=C\C(=O)O`, the Change in test [1] is 41%; in [6] it was -3%. Further, the negative-log IC50 (pIC50) is 6.40 in test [2], 6.85 in test [7], 6.66 in [8] and 5.07 in test [12]. For the same molecule, the Reduction in [3] is on record as -2%. Besides, the IC50 in test [4] is 180 nM; in test [5], 540 nM. The ED50 in test [9] is greater than 76 µmol/kg; in test [10] (setting [17]), 13 µmol/kg.
Take `CN1CCN([C@@H]2C[C@@H](c3ccc(F)cc3)c3ccc(F)cc32)CC1`: the Change in test [1] is -48%; in [6] it was -79%. The results for the pIC50 in test [2], in test [7] and in test [8] were 5.41, 4.92 and 5.77, respectively. Also, the Reduction in test [3] is recorded as -28%. Besides, the IC50 in test [4] came out at 4.9 nM; in test [5], 9.3 nM. For the same molecule, the ED50 in test [9] came to 2.5 µmol/kg; in [10] (setting [17]) it was 0.13 µmol/kg.
Take `O=C(O)/C=C\C(=O)O.O=C(O)/C=C\C(=O)O.O=C1NCCN1CCN1CCN([C@H]2C[C@H](c3ccc(F)cc3)c3ccc(F)cc32)CC1`: the Increase in test [13] was 6%; in [14] it was 4%. Moreover, the Change came to 11% in test [1] and 2% in test [6]. Moreover, the ED50 in test [11] is 0.93 µmol/kg; in test [9] it was greater than 61 µmol/kg; in test [10], 20 µmol/kg. For the same molecule, the pIC50 in [2] is 5.66; in [7], 7.77; in test [8], 7.17; in [12], 5.35. The IC50 in [4] is listed as 320 nM; in test [5] it was 900 nM.
Regarding `Fc1ccc([C@@H]2C[C@@H](N3CCNCC3)c3ccccc32)cc1.O=C(O)/C=C\C(=O)O.O=C(O)/C=C\C(=O)O`, the results for the Reduction in [13] and in test [14] were -25% and -31%, respectively. Also, the Change in test [1] is 10%; in test [6] it was -40%. Besides, the Ratio in [15] came out at 83. In addition, the ED50 was 0.1 µmol/kg in [11], 8.3 µmol/kg in test [16], greater than 76 µmol/kg in test [9] and 1.7 µmol/kg in test [10]. Moreover, the pIC50 in [2] was 7.38; in test [7] it was 6.35; in test [8] it was 6.55; in test [12], 6.24. Further, the figures for the IC50 in test [4] and in test [5] were 18 nM and 37 nM, respectively.
As to `O=C1NCCN1CCN1CCN([C@@H]2C[C@@H](c3ccc(F)cc3)c3ccccc32)CC1` (stereo in doubt; (+)2) [IRINDALONE], the Change is reported as -42% in test [1] ([…]) and -85% in test [6] (0.02 mg/kg). The Ratio in test [15] is 171. Also, the ED50 was 0.0045 µmol/kg in [11], 0.77 µmol/kg in [16], greater than 72 µmol/kg in test [9] and 0.56 µM/kg in test [10]. For the same molecule, the figures for the pIC50 in [2], in [7] and in test [8] were 4.85, 4.66 and 4.60, respectively. Further, the Reduction in [3] (5 mg/kg) is given as -48%. Besides, the IC50 was 3.4 nM in [4] and 26 nM in test [5].
On to `O=C(O)/C=C\C(=O)O.O=C(O)/C=C\C(=O)O.O=C1NCCN1CCN1CCN([C@@H]2C[C@@H](c3ccc(F)cc3)c3ccc(F)cc32)CC1`, for which the Reduction in [13] is -24%; in test [14], -31%. For the same molecule, the Ratio in [15] is 140. Besides, the values for the ED50 in test [11], in [16] and in test [10] were 0.01 µmol/kg, 1.4 µmol/kg and 0.096 µmol/kg, respectively. The pIC50 in test [2] was 6.14; in [7] it was 5.60; in test [8] it was 5.24; in test [12], 7.34. The IC50 came to 4.3 nM in test [4] and 10 nM in [5].
With `O=C1NCCN1CCN1CCN([C@@H]2C[C@@H](c3ccc(F)cc3)c3ccccc32)CC1` (stereo in doubt; 27) [IRINDALONE], the Change is 33% in [1] ([…]) and -3% in test [6] (0.02 mg/kg). Besides, the pIC50 in [2] was less than 4.00; in test [7], 7.36; in test [8], 7.00; in [12] it was 5.34. Moreover, in [3] (5 mg/kg), the Reduction is listed as -3%. Also, the IC50 amounted to 520 nM in test [4] and 670 nM in [5]. Further, the ED50 in test [10] was greater than 196 µM/kg.

For orientation: pIC50 means the negative decadic logarithm of the IC50, by convention in mol/L. High values mean a small IC50, low ones a large IC50. A word on the IC50: it is the concentration that inhibits the measured activity by half. Low values mean greater potency in that assay, high ones weaker potency in that assay.
